# Laboratory results as given in patent publication US20090137664A1, “SAURURUS CERNUUS COMPOUNDS THAT INHIBIT CELLULAR RESPONSES TO HYPOXIA” (priority 2003, published 2009).
# Key:
# Format in all cases: cell-based
# [1] = system: A549/ATCC; experiment: NCI in vitro cell line screen (SRB), Non-Small Cell Lung Cancer A549/ATCC
# Method: (§1) For exemplary purposes, an embodiment of the present invention was tested for activity with respect to certain cancer cell lines. The following Tables show results from in vitro 60-cell line antitumor testing from the US National Cancer Institute Developmental Therapeutics Program (NCI-DTP) on compound 2. The testing was in connection with the NCI's In Vitro Cell Line Screening Project (IVCLSP). Detailed information regarding the experiments and their interpretation is available from the NCI.
# [2] = system: KM12; experiment: NCI in vitro cell line screen (SRB), Colon Cancer KM12
# Method: as §1
# [3] = system: SW-620; experiment: NCI in vitro cell line screen (SRB), Colon Cancer SW-620
# Method: as §1
# [4] = system: SF-268; experiment: NCI in vitro cell line screen (SRB), CNS Cancer SF-268
# Method: as §1
# [5] = system: U251; experiment: NCI in vitro cell line screen (SRB), CNS Cancer U251
# Method: as §1
# [6] = system: LOX IMVI; experiment: NCI in vitro cell line screen (SRB), Melanoma LOX IMVI
# Method: as §1
# [7] = system: UACC-257; experiment: NCI in vitro cell line screen (SRB), Melanoma UACC-257
# Method: as §1
# [8] = system: 786-0; experiment: NCI in vitro cell line screen (SRB), Renal Cancer 786-0
# Method: as §1
# [9] = system: UO-31; experiment: NCI in vitro cell line screen (SRB), Renal Cancer UO-31
# Method: as §1
# [10] = system: PC-3; experiment: NCI in vitro cell line screen (SRB), Prostate Cancer PC-3
# Method: as §1
# [11] = system: DU-145; experiment: NCI in vitro cell line screen (SRB), Prostate Cancer DU-145
# Method: as §1
# [12] = Homo sapiens, read-out: LC50 (the source's name)
structure (smiles),measurement,setting,value
"COc1ccc([C@@H](O)[C@@H](C)Oc2ccc([C@H]3O[C@H](c4ccc(O[C@H](C)[C@H](O)c5ccc6c(c5)OCO6)c(OC)c4)[C@H](C)[C@H]3C)cc2OC)cc1OC [Compound 2, manassantin B]",TGI,[1],>1.00E−4 Molar
same,GI50,[1]; Homo sapiens,6.76 µM
same,LC50 (concentration giving 50% net cell kill),[1]; Homo sapiens,> 100 µM
same,Mean Optical Densities,[1]; Log10 Concentration −4.0 Molar,0.691
same,Percent Growth,[1]; Log10 Concentration −4.0 Molar,30%
same,Mean Optical Densities,[1]; Log10 Concentration −5.0 Molar,0.849
same,Percent Growth,[1]; Log10 Concentration −5.0 Molar,45%
same,Mean Optical Densities,[1]; Log10 Concentration −6.0 Molar,1.200
same,Percent Growth,[1]; Log10 Concentration −6.0 Molar,77%
same,Mean Optical Densities,[1]; Log10 Concentration −7.0 Molar,1.242
same,Percent Growth,[1]; Log10 Concentration −7.0 Molar,80%
same,Mean Optical Densities,[1]; Log10 Concentration −8.0 Molar,1.288
same,Percent Growth,[1]; Log10 Concentration −8.0 Molar,85%
same,TGI,[2],>1.00E−4 Molar
same,GI50,[2]; Homo sapiens,7.78 µM
same,CC50,[2]; [12],> 100 µM
same,Mean Optical Densities,[2]; Log10 Concentration −4.0 Molar,1.287
same,Percent Growth,[2]; Log10 Concentration −4.0 Molar,50%
same,Mean Optical Densities,[2]; Log10 Concentration −5.0 Molar,1.205
same,Percent Growth,[2]; Log10 Concentration −5.0 Molar,44%
same,Mean Optical Densities,[2]; Log10 Concentration −6.0 Molar,1.983
same,Percent Growth,[2]; Log10 Concentration −6.0 Molar,98%
same,Mean Optical Densities,[2]; Log10 Concentration −7.0 Molar,1.876
same,Percent Growth,[2]; Log10 Concentration −7.0 Molar,90%
same,Mean Optical Densities,[2]; Log10 Concentration −8.0 Molar,1.960
same,Percent Growth,[2]; Log10 Concentration −8.0 Molar,96%
same,TGI,[3],>1.00E−4 Molar
same,GI50,[3]; Homo sapiens,6.51 µM
same,CC50,[3]; [12],> 100 µM
same,Mean Optical Densities,[3]; Log10 Concentration −4.0 Molar,0.396
same,Percent Growth,[3]; Log10 Concentration −4.0 Molar,25%
same,Mean Optical Densities,[3]; Log10 Concentration −5.0 Molar,0.544
same,Percent Growth,[3]; Log10 Concentration −5.0 Molar,42%
same,Mean Optical Densities,[3]; Log10 Concentration −6.0 Molar,0.949
same,Percent Growth,[3]; Log10 Concentration −6.0 Molar,87%
same,Mean Optical Densities,[3]; Log10 Concentration −7.0 Molar,1.012
same,Percent Growth,[3]; Log10 Concentration −7.0 Molar,94%
same,Mean Optical Densities,[3]; Log10 Concentration −8.0 Molar,0.955
same,Percent Growth,[3]; Log10 Concentration −8.0 Molar,88%
same,TGI,[4],>1.00E−4 Molar
same,GI50,[4]; Homo sapiens,4.96 µM
same,CC50,[4]; [12],> 100 µM
same,Mean Optical Densities,[4]; Log10 Concentration −4.0 Molar,0.685
same,Percent Growth,[4]; Log10 Concentration −4.0 Molar,27%
same,Mean Optical Densities,[4]; Log10 Concentration −5.0 Molar,0.811
same,Percent Growth,[4]; Log10 Concentration −5.0 Molar,40%
same,Mean Optical Densities,[4]; Log10 Concentration −6.0 Molar,1.135
same,Percent Growth,[4]; Log10 Concentration −6.0 Molar,73%
same,Mean Optical Densities,[4]; Log10 Concentration −7.0 Molar,1.238
same,Percent Growth,[4]; Log10 Concentration −7.0 Molar,83%
same,Mean Optical Densities,[4]; Log10 Concentration −8.0 Molar,1.213
same,Percent Growth,[4]; Log10 Concentration −8.0 Molar,81%
same,TGI,[5],7.27E−5 Molar
same,GI50,"[5]; Homo sapiens, U-251",< 0.01 µM
same,CC50,"[5]; Homo sapiens, U-251, read-out: LC50 (the source's name)",> 100 µM
same,Mean Optical Densities,[5]; Log10 Concentration −4.0 Molar,0.267
same,Percent Growth,[5]; Log10 Concentration −4.0 Molar,−2%
same,Mean Optical Densities,[5]; Log10 Concentration −5.0 Molar,0.335
same,Percent Growth,[5]; Log10 Concentration −5.0 Molar,15%
same,Mean Optical Densities,[5]; Log10 Concentration −6.0 Molar,0.418
same,Percent Growth,[5]; Log10 Concentration −6.0 Molar,35%
same,Mean Optical Densities,[5]; Log10 Concentration −7.0 Molar,0.444
same,Percent Growth,[5]; Log10 Concentration −7.0 Molar,41%
same,Mean Optical Densities,[5]; Log10 Concentration −8.0 Molar,0.443
same,Percent Growth,[5]; Log10 Concentration −8.0 Molar,41%
same,TGI,[6],>1.00E−4 Molar
same,GI50,[6]; Homo sapiens,2.19 µM
same,CC50,[6]; [12],> 100 µM
same,Mean Optical Densities,[6]; Log10 Concentration −4.0 Molar,0.353
same,Percent Growth,[6]; Log10 Concentration −4.0 Molar,12%
same,Mean Optical Densities,[6]; Log10 Concentration −5.0 Molar,0.396
same,Percent Growth,[6]; Log10 Concentration −5.0 Molar,18%
same,Mean Optical Densities,[6]; Log10 Concentration −6.0 Molar,0.703
same,Percent Growth,[6]; Log10 Concentration −6.0 Molar,66%
same,Mean Optical Densities,[6]; Log10 Concentration −7.0 Molar,0.743
same,Percent Growth,[6]; Log10 Concentration −7.0 Molar,73%
same,Mean Optical Densities,[6]; Log10 Concentration −8.0 Molar,0.778
same,Percent Growth,[6]; Log10 Concentration −8.0 Molar,78%
same,TGI,[7],>1.00E−4 Molar
same,GI50,[7]; Homo sapiens,1.09 µM
same,CC50,[7]; [12],> 100 µM
same,Mean Optical Densities,[7]; Log10 Concentration −4.0 Molar,1.165
same,Percent Growth,[7]; Log10 Concentration −4.0 Molar,12%
same,Mean Optical Densities,[7]; Log10 Concentration −5.0 Molar,1.270
same,Percent Growth,[7]; Log10 Concentration −5.0 Molar,23%
same,Mean Optical Densities,[7]; Log10 Concentration −6.0 Molar,1.558
same,Percent Growth,[7]; Log10 Concentration −6.0 Molar,51%
same,Mean Optical Densities,[7]; Log10 Concentration −7.0 Molar,1.565
same,Percent Growth,[7]; Log10 Concentration −7.0 Molar,52%
same,Mean Optical Densities,[7]; Log10 Concentration −8.0 Molar,1.673
same,Percent Growth,[7]; Log10 Concentration −8.0 Molar,62%
same,TGI,[8],>1.00E−4 Molar
same,GI50,[8]; Homo sapiens,7.74 µM
same,CC50,[8]; [12],> 100 µM
same,Mean Optical Densities,[8]; Log10 Concentration −4.0 Molar,0.806
same,Percent Growth,[8]; Log10 Concentration −4.0 Molar,38%
same,Mean Optical Densities,[8]; Log10 Concentration −5.0 Molar,0.888
same,Percent Growth,[8]; Log10 Concentration −5.0 Molar,46%
same,Mean Optical Densities,[8]; Log10 Concentration −6.0 Molar,1.309
same,Percent Growth,[8]; Log10 Concentration −6.0 Molar,84%
same,Mean Optical Densities,[8]; Log10 Concentration −7.0 Molar,1.361
same,Percent Growth,[8]; Log10 Concentration −7.0 Molar,89%
same,Mean Optical Densities,[8]; Log10 Concentration −8.0 Molar,1.398
same,Percent Growth,[8]; Log10 Concentration −8.0 Molar,92%
same,TGI,[9],>1.00E−4 Molar
same,GI50,[9]; Homo sapiens,3.9 µM
same,CC50,[9]; [12],> 100 µM
same,Mean Optical Densities,[9]; Log10 Concentration −4.0 Molar,0.786
same,Percent Growth,[9]; Log10 Concentration −4.0 Molar,33%
same,Mean Optical Densities,[9]; Log10 Concentration −5.0 Molar,0.841
same,Percent Growth,[9]; Log10 Concentration −5.0 Molar,39%
same,Mean Optical Densities,[9]; Log10 Concentration −6.0 Molar,1.102
same,Percent Growth,[9]; Log10 Concentration −6.0 Molar,66%
same,Mean Optical Densities,[9]; Log10 Concentration −7.0 Molar,1.189
same,Percent Growth,[9]; Log10 Concentration −7.0 Molar,75%
same,Mean Optical Densities,[9]; Log10 Concentration −8.0 Molar,1.250
same,Percent Growth,[9]; Log10 Concentration −8.0 Molar,81%
same,TGI,[10],1.77E−5 Molar
same,GI50,[10]; Homo sapiens,2.37 µM
same,CC50,[10]; [12],> 100 µM
same,Mean Optical Densities,[10]; Log10 Concentration −4.0 Molar,0.152
same,Percent Growth,[10]; Log10 Concentration −4.0 Molar,−30%
same,Mean Optical Densities,[10]; Log10 Concentration −5.0 Molar,0.268
same,Percent Growth,[10]; Log10 Concentration −5.0 Molar,10%
same,Mean Optical Densities,[10]; Log10 Concentration −6.0 Molar,0.588
same,Percent Growth,[10]; Log10 Concentration −6.0 Molar,74%
same,Mean Optical Densities,[10]; Log10 Concentration −7.0 Molar,0.668
same,Percent Growth,[10]; Log10 Concentration −7.0 Molar,90%
same,Mean Optical Densities,[10]; Log10 Concentration −8.0 Molar,0.665
same,Percent Growth,[10]; Log10 Concentration −8.0 Molar,89%
same,TGI,[11],>1.00E−4 Molar
same,GI50,[11]; Homo sapiens,10.6 µM
same,CC50,[11]; [12],> 100 µM
same,Mean Optical Densities,[11]; Log10 Concentration −4.0 Molar,0.487
same,Percent Growth,[11]; Log10 Concentration −4.0 Molar,28%
same,Mean Optical Densities,[11]; Log10 Concentration −5.0 Molar,0.623
same,Percent Growth,[11]; Log10 Concentration −5.0 Molar,51%
same,Mean Optical Densities,[11]; Log10 Concentration −6.0 Molar,0.800
same,Percent Growth,[11]; Log10 Concentration −6.0 Molar,81%
same,Mean Optical Densities,[11]; Log10 Concentration −7.0 Molar,0.831
same,Percent Growth,[11]; Log10 Concentration −7.0 Molar,86%
same,Mean Optical Densities,[11]; Log10 Concentration −8.0 Molar,0.817
same,Percent Growth,[11]; Log10 Concentration −8.0 Molar,83%
